Test results from US5648259A, “Polypeptides having NMDA receptor activity, nucleic acids encoding those polypeptides and applications” (priority 1992, dated 1997).

How the values were obtained:
[1] = system: GR33 polypeptide SEQ ID No. 2; test: Pharmacological and electrophysiological study of Xenopus eggs microinjected with GR33 mRNA (induced current under applied potential); assay type: cell-based, rat; conditions: for effect on response induced by NMDA (200 μM): antagonist applied (200 μM) simultaneously with NMDA; for effect of competitive antagonist on responses to NMDA: concentration not given
Protocol: The cDNA fragment isolated in Example 2 was transcribed into mRNA and microinjected into Xenopus eggs. The microinjected eggs thereby obtained were then tested for their capacity to bind certain labelled NMDA receptor ligands, or for their behaviour with respect to modulators of NMDA receptors.
The plasmid containing the 1.7-kb cDNA coding for the GR33 polypeptide SEQ ID No. 2 was linearized in the presence of the enzyme SmaI, and then subjected to a transcription step in the presence of phage T7 RNA polymerase. Transcription was performed using the Stratagene Kit according to the manufacturer's recommendations.
The synthetic RNA obtained above, dissolved in sterile water, was used (5 ng) for injection into mature Xenopus eggs (stages V and VI) in a volume of 50 nl. The eggs were then maintained for 3 days at 19° C. in multi well plates in a Barth medium supplemented with antibiotics (Miledi and Sumikawa, Biomed. Res. 3 (1982) 390).
The eggs thereby obtained were then tested for the presence of functional NMDA receptors at their surface. For this purpose, the eggs were transferred to modified OR-2 medium lacking magnesium, of composition: 88 mM NaCl, 2.5 mM KCl, 1 mM CaCl2, 10 mM HEPES buffer, pH 7.4 adjusted with sodium hydroxide. The different drugs (ligands or modulators) were applied by perfusion (10 ml/min) for 10-30 seconds under an applied potential difference of -80 or -90 mV.

[2] = system: GR33 polypeptide SEQ ID No. 2; test: as above; assay type: cell-based, rat
known NMDA receptors = conditions: cited from earlier work

Which results are given for `N[C@H](CCCP(=O)(O)O)C(=O)O` [AP5, D-2-amino-5-phosphonovaleric acid]?
effect on response induced by NMDA (200 μM) [1]: abolished; effect of competitive antagonist on responses to NMDA [1]: reduced

For `N[C@H](CCCCCP(=O)(O)O)C(=O)O` [AP7, D-2-amino-7-phosphonoheptanoic acid], which “effect on response induced by NMDA (200 μM)” value (“effect on response induced” for short) [1] is on record?
The value was “abolished”.

And the “effect of competitive antagonist on responses to NMDA” value [1]?
Its value is “reduced”.

Which EC50 ([1]; GR33 expressed in Xenopus eggs, read-out: NMDA concentration giving 50% of the maximum response (ED50)) does the source give for `CN[C@H](CC(=O)O)C(=O)O` [NMDA, N-methyl-D-aspartate] here?
Its EC50 is ~10 µM.

Which “effect on response induced” value ([2]; external calcium concentration increased to 2.5 mM) does the source give for `[Ca+2]` [calcium] here?
The value was “decreased”.

What about the “effect on activity of known NMDA receptors” value (known NMDA receptors) of the same molecule?
Its value is “stimulates”.

And the “effect of calcium on GR33 activity” value [1]?
The value was “inhibitory effect”.

What does the source list for `N[C@@H](CCC(=O)O)C(=O)O` [glutamate, Glutamic acid]?
strength of response among excitatory amino acids tested (glutamate, kainate, quisqualate, homocysteate) [1]: strongest responses; induction of inward current ([1]; glutamate 0.1-1 mM, perfusion 10-30 s, -80 or -90 mV): induces an inward current

Which “induction of inward current” value ([1]; kainate) does the source give for `C=C(C)[C@H]1CN[C@H](C(=O)O)[C@H]1CC(=O)O` [kainate] here?
Its value is “little or no effect”.

With `[Mg+2]` [magnesium] as the molecule, how does the “effect on response induced” value ([2]; magnesium 200 μM added to the medium) read?
Its value is “decreased”.

What about the “effect on activity of known NMDA receptors” value (known NMDA receptors) of the same molecule?
The value was “completely inhibits”.

And the “inhibitory effect of magnesium on GR33 activity” value [1]?
Its value is 30-70%.

With `N[C@@H](Cn1oc(=O)[nH]c1=O)C(=O)O` [quisqualate] as the molecule, how does the “induction of inward current” value ([1]; quisqualate 50 μM) read?
The value was “little or no effect”.
